Assay results: patent publication US20070107072A1, “Transgenic amphibian models for lymphatic vessel development” (priority 2003, published 2007)

System: Prox-1
Assay: Prox-1 antisense morpholino knockdown in Xenopus embryos, whole-mount in situ hybridisation for Prox1 and morphometry
Format: in vivo, Xenopus laevis
Conditions: for reduction of total Prox-1 positive area: as compared to control tadpoles
Experimental: In a second example 25 ng of Prox-1 antisense morpholino oligonucleotides (Prox-1 MOs) was microinjected in a 1-cell stage Xenopus, in order to investigate the influence on the development of the lymphatic system. Prox1 is known to be expressed exclusively in lymphatic but not in blood vascular endothelial cells. Xenopus laevis embryos were obtained by artificial fertilization using standard techniques and sexually mature adult frogs purchased from Nasco Biology (Fort Atkinson, Wis.). The Prox-1 MOs, 5′-[…]-3′, were purchased from Gene Tools (Corvallis, Oreg.) and designed around the ATG codon. As ATG-specific morpholinos lower translation—but not transcription—of the target gene, we used whole embryo mount in situ hybridisation for Prox1 to visualize the defects in lymphatic vascular development. The 5′ nucleotide sequence of Prox-1 was obtained using 5′ RACE using primers based on published Xenopus laevis cDNA (GenBank # AB008773). To visualise Prox-1 expression pattern, embryos were collected at different developmental stages (according to Nieuwkoop and Faber), fixed and submitted to whole-mount in situ hybridisation according Harland (Harland, 1991), with the exception that BM purple was used as a substrate. The Prox-1 digoxigenin-labeled riboprobe used was constructed from a 950 bp cDNA fragment (GenBank # AB008773), which was cloned into pGEMTeasy and linearised with AatII to get SP6 antisense probe. After in situ hybridisation the embryos where bleached, cleared and stored in glycerol until analysed. Analysis was performed using a Zeiss Axioplan 2 imaging microscope equipped with a Axiocam HrC camera and the KS300 morphometry software. The total ISH-region was divided into 3 different regions where the first region represents the ventral side the tail, a second region where the dorsal migration of prox-1 positive cells takes place and finally a third region which represents the dorsal side. For all regions, length of positive staining was measured, followed by segmentation of the ISH-area by hue, lightness and saturation for defining the true stained area. A value of migration is given by the cell that traveled furthest across the tail. In non-morpholino treated Xenopus we observed that the normal lymphatic system starts developing at the jugular region of the tadpole around developmental stage 29/30. Apart from expression in non-lymphatic tissues such as the pronephros and the eye, the Prox-1 expression at this stage seems to be restricted to the jugular region. At the following stage (31-32), the staining in the jugular region is expanded to what will become the future lymphsacs. The region of the future anterior lymph hearts as well as the ventral caudal region show intense Prox-1 positive signal too. By stage 33/34 the prox positive cells in the caudal region start the formation of the ventral caudal lymphatic vessel. Prox-1 positive lymphatic cells are migrating from the ventral to the dorsal region and this event is culminating at stage 35/36 where the highest amount of migrating cells can be accounted for. The formation of what eventually will become the dorsal lymphatic vessel is also initiated at this stage. By stage 37-38 a majority of the prox positive cells have reached the dorsal side where they are contributing to the formation of dorsal caudal lymphatic vessels. […] In the tail of the Prox-1 morphants dorsal migration of Pro-1 positive cells is dearly impaired. […]

5′-CAGGCATCACTGGACTGTTATTGTG-3′ (all phosphorodiamidate morpholino (PMO)) [Prox-1 MOs, Prox-1 antisense morpholino oligonucleotides purchased from Gene Tools, designed around the ATG codon]
formation of the lymph hearts and the rostral lymphatic structures (Prox1 knockdown): impaired
cardiogenesis (looping, septation and beating of the heart, and blood circulation) (Prox1 morphants): all normal
development of blood vessels (number of Msr-positive intersomitic vessels in anterior trunk, Msr-positive area in posterior trunk) (Prox1 morphants): not affected
Prox-1 staining of the anterior region (Prox-1 morphants): clearly reduced
edema in the head and anterior trunk (beyond stage 45): manifest edema in the head and anterior trunk developed in most Prox1 knockdown embryos
reduction of total Prox-1 positive area (stage 33/34): about 60%
reduction of dorsal migration of Prox-1 positive cells in the tail (stage 35/36, 25 ng microinjected in 1-cell stage, vs control tadpoles): about 55%
reduction of total Prox-1 positive area (stage 35/36): ~50%
dorsal migration of Prox-1 positive cells in the tail (stage 37/38, 25 ng microinjected in 1-cell stage): significantly reduced
reduction of total Prox-1 positive area (stage 37/38): ~35%
